Experimental data published in US11208386B2, “Inhibitors of protein arginine deiminases (PADs) and methods of preparation and use thereof” (University of Massachusetts, priority 2016, dated 2021).

Experiments:
[1] = cited from earlier work
PAD1 = target: T1, PAD1 (Homo sapiens, UniProt Q9ULC6); assay: Inactivation kinetics, PAD1; type: biochemical; conditions: for kinact/KI: a: single kobs determined, b: from a linear fit; for Fold PAD1 Selectivity: kinact/KI relative to least inhibited isozyme (1.0)
T1 construct: made in house
T1 sequence (Q9ULC6 1-663): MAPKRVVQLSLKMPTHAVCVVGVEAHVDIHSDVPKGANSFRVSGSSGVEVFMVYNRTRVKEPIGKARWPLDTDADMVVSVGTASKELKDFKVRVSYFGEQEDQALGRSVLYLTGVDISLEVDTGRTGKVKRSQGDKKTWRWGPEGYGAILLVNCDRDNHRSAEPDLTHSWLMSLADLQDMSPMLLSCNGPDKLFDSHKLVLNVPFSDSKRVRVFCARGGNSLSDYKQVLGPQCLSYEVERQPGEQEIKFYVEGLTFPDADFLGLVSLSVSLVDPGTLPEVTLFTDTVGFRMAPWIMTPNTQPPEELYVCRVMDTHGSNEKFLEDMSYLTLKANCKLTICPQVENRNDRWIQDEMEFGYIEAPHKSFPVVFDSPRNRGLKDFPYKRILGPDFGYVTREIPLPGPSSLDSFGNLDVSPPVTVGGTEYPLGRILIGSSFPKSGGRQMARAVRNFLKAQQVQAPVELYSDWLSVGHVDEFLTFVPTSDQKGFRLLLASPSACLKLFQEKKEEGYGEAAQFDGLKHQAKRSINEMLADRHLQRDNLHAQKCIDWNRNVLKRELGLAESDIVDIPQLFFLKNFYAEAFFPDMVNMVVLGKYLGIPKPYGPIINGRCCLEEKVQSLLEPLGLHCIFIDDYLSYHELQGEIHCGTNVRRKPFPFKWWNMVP
Method in brief: (§1)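 PAD1, 2 or 4 (2.0 μM) or PAD3 (5.0 μM) preincubated at 37 °C with varying inhibitor in 50 mM HEPES, 10 mM CaCl2, 2 mM DTT, pH 7.6. Timed aliquots assayed 15 min with 10 mM BAEE (BAA for PAD3); citrulline quantified by COLDER.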

PAD2 [2] = target: T2, PAD2 (Homo sapiens, UniProt Q9Y2J8); assay: Inactivation kinetics, PAD2; type: biochemical; conditions: for kinact/KI: a: single kobs determined, b: from a linear fit, other footnotes: from kinact and KI; for Fold PAD2 Selectivity: kinact/KI relative to least inhibited isozyme (1.0)
T2 construct: made in house
Method in brief: as §1

PAD3 = target: T3, PAD3 (Homo sapiens, UniProt Q9ULW8); assay: Inactivation kinetics, PAD3; type: biochemical; conditions: for kinact/KI: a: single kobs determined; for Fold PAD3 Selectivity: kinact/KI relative to least inhibited isozyme (1.0)
T3 construct: made in house
T3 sequence (Q9ULW8 1-664): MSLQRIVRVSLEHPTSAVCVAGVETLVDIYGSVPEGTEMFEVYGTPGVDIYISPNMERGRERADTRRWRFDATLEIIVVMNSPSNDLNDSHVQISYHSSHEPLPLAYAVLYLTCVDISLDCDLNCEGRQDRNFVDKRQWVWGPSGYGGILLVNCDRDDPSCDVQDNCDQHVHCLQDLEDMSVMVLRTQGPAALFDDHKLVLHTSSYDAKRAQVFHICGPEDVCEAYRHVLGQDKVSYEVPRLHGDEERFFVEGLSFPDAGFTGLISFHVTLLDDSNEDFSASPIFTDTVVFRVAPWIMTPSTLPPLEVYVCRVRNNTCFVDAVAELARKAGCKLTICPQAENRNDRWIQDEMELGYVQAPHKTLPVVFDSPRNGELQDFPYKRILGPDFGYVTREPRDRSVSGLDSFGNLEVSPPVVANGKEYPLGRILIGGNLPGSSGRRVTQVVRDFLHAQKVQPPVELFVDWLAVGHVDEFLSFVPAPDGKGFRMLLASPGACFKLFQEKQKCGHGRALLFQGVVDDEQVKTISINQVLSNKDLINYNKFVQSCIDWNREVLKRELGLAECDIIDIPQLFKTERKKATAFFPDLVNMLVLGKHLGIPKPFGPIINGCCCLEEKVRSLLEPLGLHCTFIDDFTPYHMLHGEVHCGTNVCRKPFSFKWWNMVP
Method in brief: as §1

PAD4 = target: T4, PAD4 (Homo sapiens, UniProt Q9UM07); assay: Inactivation kinetics, PAD4; type: biochemical; conditions: for kinact/KI: a: single kobs determined, b: from a linear fit; for Fold PAD4 Selectivity: kinact/KI relative to least inhibited isozyme (1.0)
T4 construct: made in house
Method in brief: as §1

PAD2 [3] = target: T2, PAD2; assay: In vitro labeling of PAD2 with clickable probes to determine limit of detection; type: binding; conditions: probe clicked with TAMRA-N3
Procedure: In Vitro Labeling o f PAD2 with BB-F-Yne (5u) and BB-C-Yne (5v) to Determine their Limit of detection (LOD)
BB-F-Yne (5u) or BB-Cl-Yne (5v) (10 μM) were incubated with decreasing concentrations of recombinant PAD2 (1.0 to 0.025 μM) in the presence of CaCl2 in 1×PBS (2 mM) at 37° C. for 1 h. The probe labeled enzymes were coupled to TAMRA-N3 (20 μM) in the presence of 1×TBTA (0.31 mM), sodium ascorbate (2 mM) and freshly prepared CuSO4 (1 mM). The tubes were gently tumbled for 1 h. […] The bands were visualized by scanning the gel in a typhoon scanner (approximate excitation/emission maxima 546/579, respectively).

T4 sequence (Q9UM07 whole entry): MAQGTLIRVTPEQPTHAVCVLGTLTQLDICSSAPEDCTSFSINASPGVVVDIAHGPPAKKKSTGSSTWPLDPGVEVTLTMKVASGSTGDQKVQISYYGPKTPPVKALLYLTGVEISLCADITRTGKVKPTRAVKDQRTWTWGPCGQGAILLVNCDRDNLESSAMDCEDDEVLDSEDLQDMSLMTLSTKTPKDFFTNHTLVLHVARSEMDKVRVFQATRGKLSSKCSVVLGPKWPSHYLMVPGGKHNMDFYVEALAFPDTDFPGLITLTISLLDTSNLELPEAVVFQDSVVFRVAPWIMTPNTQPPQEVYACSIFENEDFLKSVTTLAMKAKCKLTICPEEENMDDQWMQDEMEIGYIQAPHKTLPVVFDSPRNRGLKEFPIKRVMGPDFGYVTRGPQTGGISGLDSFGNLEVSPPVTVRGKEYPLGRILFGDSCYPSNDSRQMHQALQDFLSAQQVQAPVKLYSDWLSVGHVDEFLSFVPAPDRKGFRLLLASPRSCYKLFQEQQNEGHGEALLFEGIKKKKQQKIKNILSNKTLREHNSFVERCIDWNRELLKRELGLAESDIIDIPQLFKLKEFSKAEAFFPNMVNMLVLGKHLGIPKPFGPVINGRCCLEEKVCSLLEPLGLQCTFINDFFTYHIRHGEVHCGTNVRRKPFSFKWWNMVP
T2 sequence (Q9Y2J8 whole entry): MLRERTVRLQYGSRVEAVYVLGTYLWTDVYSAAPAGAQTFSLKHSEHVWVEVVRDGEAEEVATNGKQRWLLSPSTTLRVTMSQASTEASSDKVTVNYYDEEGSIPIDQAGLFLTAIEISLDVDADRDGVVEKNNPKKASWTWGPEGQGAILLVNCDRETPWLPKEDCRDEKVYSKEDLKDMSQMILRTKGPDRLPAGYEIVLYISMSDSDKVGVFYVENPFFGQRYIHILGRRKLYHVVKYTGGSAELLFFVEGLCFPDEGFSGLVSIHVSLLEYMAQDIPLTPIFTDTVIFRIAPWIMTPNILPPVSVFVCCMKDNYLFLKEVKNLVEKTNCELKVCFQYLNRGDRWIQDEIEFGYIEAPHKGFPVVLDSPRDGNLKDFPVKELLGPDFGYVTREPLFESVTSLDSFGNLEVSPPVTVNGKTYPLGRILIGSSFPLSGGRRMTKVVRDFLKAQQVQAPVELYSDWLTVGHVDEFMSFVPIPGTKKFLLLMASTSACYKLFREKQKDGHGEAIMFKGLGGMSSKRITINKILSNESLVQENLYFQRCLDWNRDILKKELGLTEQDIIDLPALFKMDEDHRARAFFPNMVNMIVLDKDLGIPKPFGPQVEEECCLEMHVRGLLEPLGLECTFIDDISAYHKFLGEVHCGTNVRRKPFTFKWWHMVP

kinact/KI (PAD1)	Fold PAD1 Selectivity (PAD1)	kinact/KI (PAD2 [2])	Fold PAD2 Selectivity (PAD2 [2])	kinact/KI (PAD3)	Fold PAD3 Selectivity (PAD3)	kinact/KI (PAD4)	Fold PAD4 Selectivity (PAD4)	limit of detection (LOD) for PAD2 (PAD2 [3])	Molecule	efficacy in an RA model ([1]; in vivo)	efficacy in animal models ([1]; rheumatoid arthritis, lupus, ulcerative colitis, spinal cord injury, breast cancer, atherosclerosis)
									GSK199	shows efficacy	
77.5 M⁻¹ s⁻¹	4.8 fold	16.2 M⁻¹ s⁻¹	1.0 fold	17.1 M⁻¹ s⁻¹	1.1 fold	29.5 M⁻¹ s⁻¹	1.8 fold	375 fmol	C#Cc1ccc(-c2ccc(C(=O)N[C@@H](CCCNC(=N)CF)c3nc4ccccc4[nH]3)cc2)cc1 [Compound 5u, N1-4′-ethynyl-[1,1′-Phenyl]benzol-N5-(2-fluoro-1-iminoethyl)-1-(1H-benzo[d]imidazol-2-yl)-L-ornithine]		
									N=C(CCl)NCCC[C@H](NC(=O)c1ccccc1)C(N)=O [Cl-amidine]		demonstrated efficacy
448 M⁻¹ s⁻¹	11 fold	277 M⁻¹ s⁻¹	6.8 fold	80 M⁻¹ s⁻¹	2.0 fold	40.5 M⁻¹ s⁻¹	1.0 fold		CCN1Cc2cccc(C(=O)N[C@@H](CCCNC(=N)CCl)c3nc4ccccc4n3C(C)C)c2C1=O [Compound 8h, N1-(2-ethyl-3-oxoisoindoline)benzoyl-N5-(2-chloro-1-iminoethyl)-1-(1-isopropyl-benzo[d]imidazol-2-yl)-L-ornithine]		
960 M⁻¹ s⁻¹	27 fold	282 M⁻¹ s⁻¹	8.0 fold	112 M⁻¹ s⁻¹	3.2 fold	35 M⁻¹ s⁻¹	1.0 fold		CC(C)n1c([C@H](CCCNC(=N)CCl)NC(=O)c2cccc3c2C(=O)NC3)nc2ccccc21 [Compound 7h, N1-(3-oxoisoindoline)benzol-N5-(2-chloro-1-iminoethyl)-1-(1-isopropyl-benzo[d]imidazol-2-yl)-L-ornithine]		
15.8 M⁻¹ s⁻¹	2.2 fold	102 M⁻¹ s⁻¹	14 fold	51.7 M⁻¹ s⁻¹	7.0 fold	7.33 M⁻¹ s⁻¹	1.0 fold		CCn1c([C@H](CCCNC(=N)CF)NC(=O)c2ccccc2C(=O)OC(C)(C)C)nc2ccccc21 [Compound 9c, N1-(2-tert-butylcarboxy)benzoyl-N5-(2-fluoro-1-iminoethyl)-1-(1-ethyl-benzo[d]imidazol-2-yl)-L-ornithine]		
156 M⁻¹ s⁻¹	4.4 fold	226 M⁻¹ s⁻¹	6.3 fold	127 M⁻¹ s⁻¹	3.6 fold	35.7 M⁻¹ s⁻¹	1.0 fold		CCN1Cc2cccc(C(=O)N[C@@H](CCCNC(=N)CF)c3nc4cc(OC)ccc4[nH]3)c2C1=O [Compound 8w, N1-(2-ethyl-3-oxoisoindoline)benzol-N5-(2-fluoro-1-iminoethyl)-1-(5-methoxy-1H-benzo[d]imidazol-2-yl)-L-ornithine]		
308 M⁻¹ s⁻¹	6.1 fold	546 M⁻¹ s⁻¹	11 fold	95.8 M⁻¹ s⁻¹	1.9 fold	50.5 M⁻¹ s⁻¹	1.0 fold		CCN1Cc2cccc(C(=O)N[C@@H](CCCNC(=N)CF)c3nc4ccccc4n3C)c2C1=O [Compound 8c, N1-(2-ethyl-3-oxoisoindoline)benzoyl-N5-(2-fluoro-1-iminoethyl)-1-(1-methyl-benzo[d]imidazol-2-yl)-L-ornithine]		
41.2 M⁻¹ s⁻¹	2.1 fold	40 M⁻¹ s⁻¹	2.0 fold	20 M⁻¹ s⁻¹	1.0 fold	40.5 M⁻¹ s⁻¹	2.0 fold		Cn1c([C@H](CCCNC(=N)CF)NC(=O)c2ccccc2C(=O)OC(C)(C)C)nc2ccccc21 [Compound 9a, N1-(2-tert-butylcarboxy)benzoyl-N5-(2-fluoro-1-iminoethyl)-1-(1-methyl-benzo[d]imidazol-2-yl)-L-ornithine]		
1320 M⁻¹ s⁻¹	21 fold	1190 M⁻¹ s⁻¹	19 fold	62.8 M⁻¹ s⁻¹	1.0 fold	75.7 M⁻¹ s⁻¹	1.2 fold		CCN1Cc2cccc(C(=O)N[C@@H](CCCNC(=N)CCl)c3nc4ccccc4n3C)c2C1=O [Compound 8d, N1-(2-ethyl-3-oxoisoindoline)benzoyl-N5-(2-chloro-1-iminoethyl)-1-(1-methyl-benzo[d]imidazol-2-yl)-L-ornithine]		
1300 M⁻¹ s⁻¹	3.9 fold	1300 M⁻¹ s⁻¹	3.9 fold	332 M⁻¹ s⁻¹	1.0 fold	422 M⁻¹ s⁻¹	1.3 fold		COc1cccc2c1nc([C@H](CCCNC(=N)CCl)NC(=O)c1cccc3c1C(=O)NC3)n2C [Compound 7l, N1-(3-oxoisoindoline)benzoyl-N5-(2-chloro-1-iminoethyl)-1-(4-methoxy-1-methyl-benzo[d]imidazol-2-yl)-L-ornithine]		
1790 M⁻¹ s⁻¹	50 fold	657 M⁻¹ s⁻¹	19 fold	103 M⁻¹ s⁻¹	2.9 fold	35.5 M⁻¹ s⁻¹	1.0 fold		CCn1c([C@H](CCCNC(=N)CCl)NC(=O)c2cccc3c2C(=O)NC3)nc2c(OC)cccc21 [Compound 7r, N1-(3-oxoisoindoline)benzoyl-N5-(2-chloro-1-iminoethyl)-1-(4-methoxy-1-ethyl-benzo[d]imidazol-2-yl)-L-ornithine]		
